Columns and labels:
[1] = biological target: T1, Peripheral plasma membrane protein CASK (Homo sapiens) (UniProt O14936); assay: (§1) Cellular target engagement assay with: CASK; parameters: cell line HEK293T; conditions: HEK-293T, NanoBRET Ttracer Tracer K5
T1 sequence (whole entry): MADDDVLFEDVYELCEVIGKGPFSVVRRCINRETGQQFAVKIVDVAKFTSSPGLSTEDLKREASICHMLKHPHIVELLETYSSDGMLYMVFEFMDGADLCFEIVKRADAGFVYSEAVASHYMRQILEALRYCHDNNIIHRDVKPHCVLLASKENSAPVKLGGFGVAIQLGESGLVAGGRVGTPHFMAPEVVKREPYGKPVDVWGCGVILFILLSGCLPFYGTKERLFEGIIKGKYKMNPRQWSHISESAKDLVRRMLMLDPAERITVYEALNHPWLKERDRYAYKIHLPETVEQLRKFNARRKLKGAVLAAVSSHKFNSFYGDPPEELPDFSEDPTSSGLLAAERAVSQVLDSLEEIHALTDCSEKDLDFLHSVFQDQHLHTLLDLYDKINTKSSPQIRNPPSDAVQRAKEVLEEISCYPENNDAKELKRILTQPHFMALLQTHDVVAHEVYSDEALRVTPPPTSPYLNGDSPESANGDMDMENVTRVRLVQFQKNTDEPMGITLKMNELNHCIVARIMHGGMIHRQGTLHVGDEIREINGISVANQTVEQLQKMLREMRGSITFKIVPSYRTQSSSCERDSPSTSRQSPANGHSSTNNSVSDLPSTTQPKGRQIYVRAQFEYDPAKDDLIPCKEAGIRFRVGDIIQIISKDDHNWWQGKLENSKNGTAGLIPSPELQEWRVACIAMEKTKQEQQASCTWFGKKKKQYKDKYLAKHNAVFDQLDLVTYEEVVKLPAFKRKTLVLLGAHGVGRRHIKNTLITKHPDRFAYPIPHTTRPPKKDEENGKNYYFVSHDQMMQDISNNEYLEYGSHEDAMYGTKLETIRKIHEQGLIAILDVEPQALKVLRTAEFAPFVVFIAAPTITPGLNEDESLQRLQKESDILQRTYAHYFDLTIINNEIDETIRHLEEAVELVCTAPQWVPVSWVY

[2] = biological target: T2, Peripheral plasma membrane protein CASK (Homo sapiens, UniProt O14936); assay: as §1; parameters: species or system HEK-293T; cell line HEK293T
T2 sequence (O14936 whole entry): T1 sequence (whole entry)

Peregrin (Homo sapiens) [3] = biological target: T3, Peregrin (Homo sapiens) (UniProt P55201); conditions: Compound concentration 20.0 uM, Protein concentration 2.0 uM, Result type QC Liability
T3 sequence (whole entry): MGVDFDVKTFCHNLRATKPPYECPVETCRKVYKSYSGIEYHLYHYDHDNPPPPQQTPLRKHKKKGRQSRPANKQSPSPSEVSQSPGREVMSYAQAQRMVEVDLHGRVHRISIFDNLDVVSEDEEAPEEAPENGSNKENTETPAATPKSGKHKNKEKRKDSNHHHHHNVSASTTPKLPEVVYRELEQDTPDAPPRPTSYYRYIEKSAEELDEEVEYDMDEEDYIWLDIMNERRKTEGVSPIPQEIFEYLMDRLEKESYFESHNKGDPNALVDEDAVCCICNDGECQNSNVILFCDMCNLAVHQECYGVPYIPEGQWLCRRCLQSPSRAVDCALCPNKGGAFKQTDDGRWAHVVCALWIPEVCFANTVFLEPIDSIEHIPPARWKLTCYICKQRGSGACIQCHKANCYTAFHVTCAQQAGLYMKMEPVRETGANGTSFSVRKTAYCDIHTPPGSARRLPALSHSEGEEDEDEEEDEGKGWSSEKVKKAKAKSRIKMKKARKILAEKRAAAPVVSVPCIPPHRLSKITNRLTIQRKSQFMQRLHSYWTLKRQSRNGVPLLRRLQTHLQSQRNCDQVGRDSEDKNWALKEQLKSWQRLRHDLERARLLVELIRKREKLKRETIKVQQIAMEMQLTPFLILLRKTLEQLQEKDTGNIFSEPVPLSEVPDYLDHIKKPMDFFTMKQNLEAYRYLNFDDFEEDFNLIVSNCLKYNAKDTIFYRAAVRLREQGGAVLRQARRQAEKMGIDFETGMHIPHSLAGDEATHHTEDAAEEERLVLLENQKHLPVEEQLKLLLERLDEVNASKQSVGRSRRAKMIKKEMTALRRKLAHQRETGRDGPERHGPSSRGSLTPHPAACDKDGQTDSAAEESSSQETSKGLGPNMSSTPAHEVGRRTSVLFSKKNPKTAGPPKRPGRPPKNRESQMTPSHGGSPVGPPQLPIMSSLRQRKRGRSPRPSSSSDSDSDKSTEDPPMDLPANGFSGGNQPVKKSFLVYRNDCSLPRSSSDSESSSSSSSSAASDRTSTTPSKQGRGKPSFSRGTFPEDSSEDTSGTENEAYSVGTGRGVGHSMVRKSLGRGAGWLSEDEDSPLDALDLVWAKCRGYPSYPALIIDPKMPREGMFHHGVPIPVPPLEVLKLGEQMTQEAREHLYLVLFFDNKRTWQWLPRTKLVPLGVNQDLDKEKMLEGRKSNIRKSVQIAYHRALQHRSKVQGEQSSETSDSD

[4] = biological target: Fibroblast growth factor receptor 3 (Homo sapiens) (UniProt P22607); conditions: Compound concentration 20.0 uM, Protein concentration 2.0 uM, Result type QC Liability
Chain of Fibroblast growth factor receptor 3 (Homo sapiens) (P22607 23-806 limits assumed): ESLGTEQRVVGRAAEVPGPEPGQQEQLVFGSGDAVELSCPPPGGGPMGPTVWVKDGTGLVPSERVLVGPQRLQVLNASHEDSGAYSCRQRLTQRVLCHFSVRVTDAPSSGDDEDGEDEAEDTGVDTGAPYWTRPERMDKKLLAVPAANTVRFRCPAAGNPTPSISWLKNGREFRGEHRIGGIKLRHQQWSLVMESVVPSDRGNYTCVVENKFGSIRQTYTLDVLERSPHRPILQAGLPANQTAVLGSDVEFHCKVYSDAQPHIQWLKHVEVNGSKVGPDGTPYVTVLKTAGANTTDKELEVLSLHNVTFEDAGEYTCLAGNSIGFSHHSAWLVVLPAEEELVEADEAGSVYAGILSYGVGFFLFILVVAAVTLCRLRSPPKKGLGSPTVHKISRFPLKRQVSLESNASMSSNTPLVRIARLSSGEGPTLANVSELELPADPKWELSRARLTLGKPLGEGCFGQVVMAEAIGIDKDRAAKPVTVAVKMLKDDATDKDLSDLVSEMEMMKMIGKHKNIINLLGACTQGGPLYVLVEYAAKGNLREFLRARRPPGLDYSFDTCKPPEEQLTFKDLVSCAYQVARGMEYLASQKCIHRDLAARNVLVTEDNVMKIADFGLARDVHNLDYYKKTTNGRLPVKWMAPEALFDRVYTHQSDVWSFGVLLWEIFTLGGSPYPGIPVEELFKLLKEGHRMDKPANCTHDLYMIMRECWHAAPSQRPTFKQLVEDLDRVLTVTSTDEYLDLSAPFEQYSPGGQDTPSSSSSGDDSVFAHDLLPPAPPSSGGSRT
Description: Thermal Shift Assay. Domain: start/stop: P449-E759

Peregrin (Homo sapiens) [5] = biological target: T3, Peregrin (Homo sapiens); conditions: Compound concentration 20.0 uM, Protein concentration 2.0 uM, Result type QC Liability; remark: listed apart in the source
[6] = biological target: SRSF protein kinase 1 (Homo sapiens) (UniProt Q96SB4); conditions: HEK-293T, NanoBRET Ttracer MW375
Chain of SRSF protein kinase 1 (Homo sapiens) (Q96SB4 whole entry): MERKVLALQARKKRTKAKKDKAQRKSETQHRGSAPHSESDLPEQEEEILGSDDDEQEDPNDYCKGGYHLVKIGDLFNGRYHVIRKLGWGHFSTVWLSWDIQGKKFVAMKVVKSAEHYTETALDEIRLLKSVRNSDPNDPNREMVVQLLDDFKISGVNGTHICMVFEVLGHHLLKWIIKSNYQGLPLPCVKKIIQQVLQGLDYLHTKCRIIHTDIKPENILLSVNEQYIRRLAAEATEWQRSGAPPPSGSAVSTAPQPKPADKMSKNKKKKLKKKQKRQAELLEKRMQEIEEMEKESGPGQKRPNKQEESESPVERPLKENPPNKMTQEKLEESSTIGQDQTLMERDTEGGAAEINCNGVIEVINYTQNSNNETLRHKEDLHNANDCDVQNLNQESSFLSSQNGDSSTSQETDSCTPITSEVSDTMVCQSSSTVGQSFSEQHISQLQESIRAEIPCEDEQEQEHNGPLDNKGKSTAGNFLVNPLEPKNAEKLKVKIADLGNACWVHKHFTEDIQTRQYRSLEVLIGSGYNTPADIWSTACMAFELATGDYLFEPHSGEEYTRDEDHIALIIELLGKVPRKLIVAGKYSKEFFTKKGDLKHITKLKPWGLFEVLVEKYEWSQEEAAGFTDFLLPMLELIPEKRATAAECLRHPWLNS
Description: Cellular target engagement assay with: SRPK1

[7] = biological target: SRSF protein kinase 2 (Homo sapiens) (UniProt P78362); conditions: HEK-293T, NanoBRET Ttracer MW375
Chain of SRSF protein kinase 2 (Homo sapiens) (P78362 whole entry, looked up, the tested form may be a part): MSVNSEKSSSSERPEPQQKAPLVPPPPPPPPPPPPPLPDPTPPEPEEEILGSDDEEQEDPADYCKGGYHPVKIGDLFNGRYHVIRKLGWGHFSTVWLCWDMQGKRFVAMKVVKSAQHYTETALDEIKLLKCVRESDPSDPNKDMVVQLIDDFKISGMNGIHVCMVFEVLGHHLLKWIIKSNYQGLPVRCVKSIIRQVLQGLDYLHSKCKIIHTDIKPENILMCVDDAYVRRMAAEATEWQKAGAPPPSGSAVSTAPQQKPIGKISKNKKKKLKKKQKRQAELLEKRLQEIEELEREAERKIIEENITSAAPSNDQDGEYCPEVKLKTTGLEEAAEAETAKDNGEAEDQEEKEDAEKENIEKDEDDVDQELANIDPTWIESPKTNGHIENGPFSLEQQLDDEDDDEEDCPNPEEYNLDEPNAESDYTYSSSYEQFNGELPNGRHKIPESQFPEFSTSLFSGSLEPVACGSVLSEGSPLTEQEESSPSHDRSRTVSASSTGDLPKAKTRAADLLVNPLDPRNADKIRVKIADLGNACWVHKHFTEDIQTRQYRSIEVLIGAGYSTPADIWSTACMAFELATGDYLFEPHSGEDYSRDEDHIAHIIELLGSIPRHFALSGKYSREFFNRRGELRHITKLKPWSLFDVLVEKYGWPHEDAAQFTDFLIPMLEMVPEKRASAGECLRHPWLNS
Description: Cellular target engagement assay with: SRPK2

[8] = biological target: T4, Discoidin domain-containing receptor 2 (Homo sapiens) (UniProt Q16832); assay: Cellular target engagement assay with: DDR2; parameters: cell line HEK293T; conditions: HEK-293T, NanoBRET Ttracer Tracer K4
T4 sequence (whole entry): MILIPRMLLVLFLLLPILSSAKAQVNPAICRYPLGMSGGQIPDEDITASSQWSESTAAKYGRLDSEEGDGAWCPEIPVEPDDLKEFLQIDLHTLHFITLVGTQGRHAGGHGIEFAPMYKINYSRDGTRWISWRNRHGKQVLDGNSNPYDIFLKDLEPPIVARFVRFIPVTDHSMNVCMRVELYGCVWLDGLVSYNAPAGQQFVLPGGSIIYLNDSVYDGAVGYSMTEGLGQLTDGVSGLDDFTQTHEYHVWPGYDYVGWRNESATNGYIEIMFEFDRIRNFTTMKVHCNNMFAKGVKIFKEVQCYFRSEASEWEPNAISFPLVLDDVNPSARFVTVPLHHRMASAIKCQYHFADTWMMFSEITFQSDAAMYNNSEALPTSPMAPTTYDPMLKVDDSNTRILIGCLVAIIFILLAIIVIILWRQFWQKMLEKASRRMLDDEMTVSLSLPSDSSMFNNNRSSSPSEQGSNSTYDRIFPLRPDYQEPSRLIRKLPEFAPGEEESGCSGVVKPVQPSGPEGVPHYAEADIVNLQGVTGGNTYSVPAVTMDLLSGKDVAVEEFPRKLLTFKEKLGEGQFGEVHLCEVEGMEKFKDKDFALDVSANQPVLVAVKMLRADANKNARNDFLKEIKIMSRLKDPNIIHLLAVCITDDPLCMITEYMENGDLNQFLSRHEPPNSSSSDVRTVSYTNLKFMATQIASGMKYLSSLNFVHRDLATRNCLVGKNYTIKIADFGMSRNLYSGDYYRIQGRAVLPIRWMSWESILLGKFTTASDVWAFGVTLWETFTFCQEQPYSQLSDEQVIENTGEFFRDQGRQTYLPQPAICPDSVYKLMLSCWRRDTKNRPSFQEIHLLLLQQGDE

[9] = biological target: Epithelial discoidin domain-containing receptor 1 (Homo sapiens) (UniProt Q08345); assay: Cellular target engagement assay with: DDR1; parameters: cell line HEK293T; conditions: HEK-293T, NanoBRET Ttracer Tracer K4
Chain of Epithelial discoidin domain-containing receptor 1 (Homo sapiens) (Q08345 whole entry, the tested form may be a part): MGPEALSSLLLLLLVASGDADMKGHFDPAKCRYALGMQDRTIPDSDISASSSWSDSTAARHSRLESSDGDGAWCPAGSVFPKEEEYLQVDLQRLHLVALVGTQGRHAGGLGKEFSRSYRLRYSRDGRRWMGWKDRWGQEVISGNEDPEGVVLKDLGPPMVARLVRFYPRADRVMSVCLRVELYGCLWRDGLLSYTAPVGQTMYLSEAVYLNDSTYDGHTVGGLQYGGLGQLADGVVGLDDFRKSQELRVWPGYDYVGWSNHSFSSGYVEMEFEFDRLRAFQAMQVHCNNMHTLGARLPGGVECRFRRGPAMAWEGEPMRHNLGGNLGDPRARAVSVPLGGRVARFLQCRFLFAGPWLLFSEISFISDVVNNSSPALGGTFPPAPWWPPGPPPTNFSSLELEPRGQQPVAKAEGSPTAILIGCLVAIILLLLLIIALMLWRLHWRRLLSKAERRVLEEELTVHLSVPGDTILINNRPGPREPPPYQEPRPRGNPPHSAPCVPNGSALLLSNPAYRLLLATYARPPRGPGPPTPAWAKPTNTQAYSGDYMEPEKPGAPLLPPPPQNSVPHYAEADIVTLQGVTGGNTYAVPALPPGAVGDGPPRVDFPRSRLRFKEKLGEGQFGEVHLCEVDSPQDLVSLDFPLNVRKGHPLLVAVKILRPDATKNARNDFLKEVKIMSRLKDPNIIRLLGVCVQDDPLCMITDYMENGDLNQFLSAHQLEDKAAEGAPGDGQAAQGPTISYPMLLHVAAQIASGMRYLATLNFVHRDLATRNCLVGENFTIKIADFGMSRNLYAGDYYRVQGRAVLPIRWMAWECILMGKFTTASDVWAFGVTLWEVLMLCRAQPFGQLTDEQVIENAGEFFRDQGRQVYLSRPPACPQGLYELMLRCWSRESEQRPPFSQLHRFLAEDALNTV

[10] = biological target: Mitogen-activated protein kinase 14 (Homo sapiens) (UniProt Q16539); assay: Cellular target engagement assay with: MAPK14; parameters: cell line HEK293T; conditions: HEK-293T, NanoBRET Ttracer Tracer K10
Chain of Mitogen-activated protein kinase 14 (Homo sapiens) (Q16539 whole entry): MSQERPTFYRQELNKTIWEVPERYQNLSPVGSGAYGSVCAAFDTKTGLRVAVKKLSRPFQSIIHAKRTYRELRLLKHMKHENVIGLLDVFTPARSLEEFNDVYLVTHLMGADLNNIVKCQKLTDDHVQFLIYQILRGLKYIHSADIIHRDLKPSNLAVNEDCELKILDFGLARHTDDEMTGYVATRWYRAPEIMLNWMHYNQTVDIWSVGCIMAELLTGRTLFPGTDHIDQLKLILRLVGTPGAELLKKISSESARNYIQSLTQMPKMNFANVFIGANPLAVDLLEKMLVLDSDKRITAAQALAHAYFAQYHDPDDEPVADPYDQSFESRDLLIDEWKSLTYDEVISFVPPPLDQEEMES

[11] = biological target: Mitogen-activated protein kinase 11 (Homo sapiens) (UniProt Q15759); assay: Cellular target engagement assay with: MAPK11; parameters: cell line HEK293T; conditions: HEK-293T, NanoBRET Ttracer Tracer K10
Chain of Mitogen-activated protein kinase 11 (Homo sapiens) (Q15759 whole entry): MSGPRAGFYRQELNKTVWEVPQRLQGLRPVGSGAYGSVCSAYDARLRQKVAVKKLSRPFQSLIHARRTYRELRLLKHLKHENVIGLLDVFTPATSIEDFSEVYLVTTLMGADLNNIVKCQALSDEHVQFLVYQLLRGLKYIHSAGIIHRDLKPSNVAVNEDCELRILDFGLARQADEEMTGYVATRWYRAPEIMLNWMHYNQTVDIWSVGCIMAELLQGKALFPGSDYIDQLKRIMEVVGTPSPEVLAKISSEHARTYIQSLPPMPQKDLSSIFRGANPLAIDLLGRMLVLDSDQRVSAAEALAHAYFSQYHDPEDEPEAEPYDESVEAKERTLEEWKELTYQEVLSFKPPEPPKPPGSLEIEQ

| LogIC50 [1] | IC50 [2] [nM] | ΔTm (Peregrin (Homo sapiens) [3]) [c] | ΔTm [4] [c] | ΔTm (Peregrin (Homo sapiens) [5]) [c] | LogIC50 [6] | LogIC50 [7] | LogIC50 [8] | LogIC50 [9] | LogIC50 [10] | LogIC50 [11] | Structure (SMILES) |
| --- | --- | --- | --- | --- | --- | --- | --- | --- | --- | --- | --- |
| -7 | 80 | 0 | 0 |  |  |  |  |  |  |  | O=C(NCCCN1CCOC1=O)c1cnc(NCc2cc(Br)ccc2Br)nc1NC1CCCC1 |
|  |  |  | 0.31 | -1.19 | -7 | -7 |  |  |  |  | CN(c1ncccc1CNc1ccnc(-c2nc3c(F)c(Cl)ccc3[nH]2)n1)S(C)(=O)=O |
|  |  | -0.163 | -0.0946 |  |  |  | -8 | -8 | -7 | -7 | CS(=O)(=O)N1CCCC(NC(=O)[C@H](CCC2CCCCC2)NC(=O)c2ccc(CNC(=O)c3cnc4ccccn34)cc2)C1 (some centres undefined) |
